Data published in patent US20230060425A1, “FUSED BICYCLIC HETEROCYCLE DERIVATIVES AS PESTICIDES” (Bayer Aktiengesellschaft, priority 2019, published 2023).

How the values were obtained:
Assay type in all cases: in vivo
Spodoptera frugiperda = Spodoptera frugiperda spray test; details: foliar, 168 h, application rate 100 g/ha, maize leaf discs, after 7 days, read-out: efficacy
Experimental: Spodoptera frugiperda—Spray Test
(§1) Solvent: • 78.0 parts by weight of acetone • 1.5 parts by weight of dimethylformamide
(§2) Emulsifier: alkylaryl polyglycol ether
To produce further test concentrations, the formulation is diluted with emulsifier-containing water.
After 7 days, the efficacy in % is determined. 100% means that all the caterpillars have been killed; 0% means that no caterpillar has been killed.

Phaedon cochleariae = Phaedon cochleariae spray test; details: foliar, 168 h, application rate 100 g/ha, Chinese cabbage leaf discs, after 7 days, read-out: efficacy
Experimental: Phaedon cochleariae—Spray Test
as §1, §2
(§3) To produce a suitable active compound preparation, 1 part by weight of active compound is dissolved using the stated parts by weight of solvent and made up with water containing an emulsifier concentration of 1000 ppm until the desired concentration is attained. To produce further test concentrations, the formulation is diluted with emulsifier-containing water.
Discs of Chinese cabbage leaves (Brassica pekinensis) are sprayed with an active compound formulation of the desired concentration and, after drying, populated with larvae of the mustard beetle (Phaedon cochleariae).
After 7 days, the efficacy in % is determined. 100% means that all the beetle larvae have been killed; 0% means that no beetle larvae have been killed.

Myzus persicae [1] = experiment: Myzus persicae spray test; details: foliar, 120 h, application rate 100 g/ha, Chinese cabbage leaf discs, after 5 days, read-out: efficacy
Experimental: Myzus persicae—Spray Test
(§4) Solvent: • 78 parts by weight of acetone • 1.5 parts by weight of dimethylformamide
as §2, §3
Discs of Chinese cabbage leaves (Brassica pekinensis) infested by all stages of the green peach aphid (Myzus persicae) are sprayed with an active compound formulation of the desired concentration.
(§5) After 5 days, the efficacy in % is determined. 100% means that all the aphids have been killed; 0% means that no aphids have been killed.

Meloidogyne incognita = Meloidogyne incognita test; details: 336 h, application rate 20 ppm, lettuce, after 14 days, formation of galls, read-out: nematicidal efficacy
Experimental: Meloidouyne incognita Test
Solvent: 125.0 parts by weight of acetone
To produce a suitable active compound formulation, 1 part by weight of active compound is mixed with the stated amount of solvent and the concentrate is diluted to the desired concentration with water.
Vessels are filled with sand, active compound solution, an egg/larvae suspension of the southern root-knot nematode (Meloidogyne incognita) and lettuce seeds. The lettuce seeds germinate and the plants develop. The galls develop on the roots.
After 14 days, the nematicidal efficacy in % is determined by the formation of galls. 100% means that no galls were found; 0% means that the number of galls on the treated plants corresponds to the untreated control.

Myzus persicae [2] = experiment: Myzus persicae oral test; details: 120 h, application rate 4 ppm, after 5 days, read-out: efficacy
Experimental: Solvent: 100 parts by weight of acetone
To produce a suitable preparation of active compound, 1 part by weight of active compound is dissolved using the specified parts by weight of solvent and made up with water until the desired concentration is attained.
50 μl of the active compound preparation are transferred into microtitre plates and made up to a final volume of 200 μl with 150 μl of IPL41 insect medium (33%+15% sugar). Subsequently, the plates are sealed with parafilm, which a mixed population of green peach aphids (Myzus persicae) within a second microtitre plate is able to puncture and imbibe the solution through it.
as §5

Aphis gossypii = Aphis gossypii spray test (APHIGO S); details: 144 h, 6 dat, read-out: % Efficacy
Experimental: Aphis gossypii—Spray Test (APHIGO S)
(§6) Solvent: 14 parts by weight of dimethylformamide
as §2
as §3, with “water. If the addition of ammonium salts or/and penetrants is required, these are each added in a concentration of 1000 ppm to the formulation solution.” for “water.”
Cotton plants (Gossypium hirsutum) heavily infested by the cotton aphid (Aphis gossypii) are sprayed with an active compound formulation of the desired concentration.
After the desired time, the kill in % is determined. 100% means that all the aphids have been killed; 0% means that no aphids have been killed.

Myzus persicae [3] = experiment: Myzus persicae spray test on bell pepper plants (MYZUPE S); details: 144 h, 6 dat, read-out: % Efficacy
Experimental: Myzus persicae—Spray Test (MYZUPE S)
as §6, §2
as §3, with “water. If the addition of ammonium salts or/and penetrants is required, these are each added in a concentration of 1000 ppm to the formulation solution.” for “water.”
Bell pepper plants (Capsicum annuum) severely infested with the green peach aphid (Myzus persicae) are treated by spraying with the active compound formulation in the desired concentration.
After the desired time, the kill in % is determined. 100% means that all the animals have been killed; 0% means that no animals have been killed.

Ctenocephalides felis [4] = experiment: Ctenocephalides felis in vitro contact test with adult cat fleas; details: application rate 5 μg/cm^2 (=500 g/ha); after 48 h; fleas dead or moribund
Experimental: Ctenocephalides felis—In Vitro Contact Tests with Adult Cat Fleas
For the coating of the test tubes, 9 mg of active compound are first dissolved in 1 ml of acetone p.a. and then diluted to the desired concentration with acetone p.a. 250 μl of the solution are distributed homogeneously on the inner walls and the base of a 25 ml glass tube by turning and rocking on an orbital shaker (rocking rotation at 30 rpm for 2 h). With 900 ppm of active compound solution and internal surface area 44.7 cm^2, given homogeneous distribution, an area-based dose of 5 μg/cm^2 is achieved.
After the solvent has evaporated off, the tubes are populated with 5-10 adult cat fleas (Ctenocephalides felis), sealed with a perforated plastic lid and incubated in a horizontal position at room temperature and ambient humidity. After 48 h, efficacy is determined. To this end, the tubes are stood upright and the fleas are knocked to the base of the tube. Fleas which remain motionless at the base or move in an uncoordinated manner are considered to be dead or moribund.
100% efficacy means that all the fleas were dead or moribund. 0% efficacy means that no fleas were harmed.

Diabrotica balteata = Diabrotica balteata spray test; details: 168 h, application rate 160 μg/cavity (μg/well), wheat grains, after 7 days, read-out: efficacy
Experimental: Diabrotica balteata—Spray Test
as §4, §2, §3
Pre-swollen wheat grains (Triticum aestivum) are incubated in a multiwell plate filled with agar and a little water for one day (5 seed grains per well). The germinated wheat grains are sprayed with an active compound preparation of the desired concentration. Subsequently, each cavity is infected with 10-20 beetle larvae of Diabrotica balteata.
After 7 days, the efficacy in % is determined. 100% means that all wheat plants have grown as in the untreated, uninfected control; 0% means that no wheat plant has grown.

Ctenocephalides felis [5] = experiment: Ctenocephalides felis oral test; details: 48 h, application rate 100 ppm, in citrated cattle blood, after 2 days, read-out: efficacy (kill in %)
Experimental: Ctenocephalides felis—Oral Test
Solvent: Dimethyl sulfoxide
To produce a suitable active compound formulation, 10 mg of active compound are mixed with 0.5 ml of dimethyl sulfoxide. Dilution with citrated cattle blood gives the desired concentration.
About 20 unfed adult cat fleas (Ctenocephalides felis) are placed into a chamber which is closed at the top and bottom with gauze. A metal cylinder whose bottom end is closed with parafilm is placed onto the chamber. The cylinder contains the blood/active compound formulation, which can be imbibed by the fleas through the parafilm membrane.
After 2 days, the kill in % is determined. 100% means that all of the fleas have been killed; 0% means that none of the fleas have been killed.

Structure (SMILES)	pest or weed control at 100 g/ha (Spodoptera frugiperda) [%]	pest or weed control at 100 g/ha (Phaedon cochleariae) [%]	pest or weed control at 100 g/ha (Myzus persicae [1]) [%]	pest or weed control at 20 ppm (Meloidogyne incognita) [%]	pest or weed control at 4 ppm (Myzus persicae [2]) [%]	Emax at 4 ppm (Aphis gossypii) [%]	Emax at 0.8 ppm (Myzus persicae [3]; 0.8 ppm) [%]	Emax at 4 ppm (Myzus persicae [3]; 4 ppm) [%]	efficacy (Ctenocephalides felis [4]) [%]	pest or weed control at 160 µg/well (Diabrotica balteata) [%]	pest or weed control at 100 ppm (Ctenocephalides felis [5]) [%]
CCS(=O)(=O)c1c(-c2nc3cc(C(F)(F)F)cnc3n2C)ncc2c(C#N)cccc12 [Example I-026]	100	100	100	90	90	–	–	–	–	–	–
CCS(=O)(=O)c1c(-c2nc3cc(C(F)(F)F)cnc3n2C)ncc2cc(C)ccc12 [Example I-015]	83	–	–	–	100	100	25	100	–	–	–
CCS(=O)(=O)c1c(-c2nc3cc(C(F)(F)C(F)(F)F)cnc3n2C)ncc2cc(Br)ccc12 [Example I-005]	100	–	–	90	100	–	–	–	100	80	100
CCS(=O)(=O)c1c(-c2nc3cc(C(F)(F)F)nnc3n2C)ncc2cc(Cl)ccc12 [Example I-008]	100	100	–	100	100	–	–	–	–	–	100
CCS(=O)(=O)c1c(-c2nc3cc(C(F)(F)F)cnc3n2C)ncc2c(Br)cccc12 [Example I-004]	100	–	–	90	100	–	–	–	–	100	–
CCS(=O)(=O)c1c(-c2nc3cc(C(F)(F)F)nnc3n2C)ncc2cc(C(F)(F)F)ccc12 [Example I-025]	100	–	90	–	100	–	–	–	100	100	100
CCS(=O)(=O)c1c(-c2nc3cc(C(F)(F)F)nnc3n2C)ncc2cc(C(F)F)ccc12 [Example I-041]	100	–	90	100	100	–	–	–	–	100	–
CCS(=O)(=O)c1c(-c2nc3cc(C(F)(F)C(F)(F)F)ncc3n2C)ncc2c(C(F)(F)F)cccc12 [Example I-012]	100	100	90	–	100	–	–	–	90	–	100
CCS(=O)(=O)c1c(-c2nc3cc(C(F)(F)C(F)(F)F)cnc3n2C)ncc2c(Br)cccc12 [Example I-006]	100	–	100	90	90	–	–	–	–	100	–
CCS(=O)(=O)c1c(-c2nc3cc(C(F)(F)F)nnc3n2C)ncc2c(Br)cccc12 [Example I-027]	100	–	70	100	100	–	–	–	–	100	–
CCS(=O)(=O)c1c(-c2nc3cc(C(F)(F)F)nnc3n2C)ncc2ccc(C(F)F)cc12 [Example I-042]	83	–	100	90	100	–	–	–	–	100	–
CCS(=O)(=O)c1c(-c2nc3cc(C(F)(F)C(F)(F)F)ncc3n2C)ncc2c(C#N)cccc12 [Example I-020]	100	–	90	90	100	–	–	–	–	100	–
